The record followed here is US6545053B1, “Tricyclic compounds and drug compositions containing same” (Asahi Kasei Kogyo Kabushiki Kaisha, priority 1996, dated 2003).

In data set [1] the target is T1, human β3 (Homo sapiens, UniProt P13945).
T1 construct: And then full length of human β3 gene was cloned using this fragment as a probe; expressed in transfected cells; host or cells: CHO cells (Chinese hamster ovary), pcDNA3 vector
Put plainly: Human β3-agonist activity (cAMP in CHO cells transfected with human β3 gene). It counts as cell-based.

Data set [2] relates to canine adipocytes. Put plainly: Lipolytic activity in canine fatty cell (glycerol release). The format is cell-based, dogs. The following applies: Canis lupus familiaris, Adipocyte. How it is done:
Lipolytic Activity in Canine Fatty Cell
Adipose tissues in the omentum were collected from dogs and minced and washed. Krebs-Ringer buffer solution containing 1 mg/ml Collagenase (Sigma) and 1% of bovine serum albumin was added in an amount of 3 ml per one gram of the tissue. These cells were then incubated at 37° C. for 30 minutes with shaking and then undigested tissues were removed with a nylon filter. The resulting adipocytes were washed four times with Krebs-Ringer buffer, and then the concentration of cells was diluted to 2×10^5/ml with Krebs-Ringer buffer solution containing 4% of bovine serum albumin. These cells were transferred to Eppendorf tubes each in an amount of 300 μl.
Each 300 μl of a culture medium containing the test compounds were added to these tubes and was held at 37° C. for 1 hour whith shaking. Stimulation was stoped by cooling with ice. After centrifugation, the adipocytes were taken off with an aspirator, whereupon the glycerol was determined using F-KIT GLTCEROL (Behringer-Manheim).

Data set [3] has as its system male ddy mice. Briefly: Blood sugar decreasing effect in glucose-loaded mice. The following applies: oral administration; glucose 2 g/kg s.c.; after one hour. The format is in vivo. How it is done:
Blood Sugar Decreasing Effect and Lipolytic Effect Male ddy mice (supplied from the firm Nippon Charles Liver) of 6 weeks age were subcutaneously administered with glucose in a dose of 2 g/kg. The animals were also treated with either one of test compounds via oral or intraperitoneal administration in a dose of 0.1 ml per 10 grams of body weight. After one hour, blood sample was taken from abdominal aorta, from which serum was separated and served as the sample. Blood Sugar Decreasing Effect The samples prepared as above were analyzed for the serum glucose concentration by Auto analyzer (SUPER Z of the firm M. C. Medical). For the analyzer kit, Glucose II HA TEST WAKO (of the firm Wako Pure Chemical) was used. % decrease in blood sugar=[(A−B)/(A−C)]×100 in which A represents the glucose concentration upon being loaded with glucose, B represents the glucose concentration after administration of the compound and C is the usual level of the glucose concentration. […] Therefore, it was proven that the compound according to the present invention is effective as a medicament for therapeutic and preventive treatment of diabetes.

Data set [4] deals with male ddy mice. Put plainly: Lipolytic effect in mice (serum free fatty acid). The format is in vivo. The following applies: oral administration of 30 mg/kg. As for the experimental part:
Blood Sugar Decreasing Effect and Lipolytic Effect Male ddy mice (supplied from the firm Nippon Charles Liver) of 6 weeks age were subcutaneously administered with glucose in a dose of 2 g/kg. The animals were also treated with either one of test compounds via oral or intraperitoneal administration in a dose of 0.1 ml per 10 grams of body weight. After one hour, blood sample was taken from abdominal aorta, from which serum was separated and served as the sample. Lipolytic Effect Amount of free fatty acid in the samples was determined using NEFA HA TEST WAKO (of the firm Wako Pure Chemical). […] Therefore, it was shown that they are useful as medicament for preventive and therapeutic treatment of hyperlipemia and for therapeutic treatment of obesity.

Data set [5] relates to male ddy mice. Briefly: Toxicity test in mice. The format is in vivo. The following applies: dose of 100 mg/kg; 8 mice. How it is done:
The compounds of Examples 7 and 31 were administered to 6 week age male ddy mice (supplied from the firm Nippon Charles Liver) at a dose of 100 mg/kg.

Each structure is given as a SMILES string. pEC50: −log10 of the molar value. Counter-ions that a name gives are not always drawn.

T1 sequence (P13945 whole entry, the tested form may be a part): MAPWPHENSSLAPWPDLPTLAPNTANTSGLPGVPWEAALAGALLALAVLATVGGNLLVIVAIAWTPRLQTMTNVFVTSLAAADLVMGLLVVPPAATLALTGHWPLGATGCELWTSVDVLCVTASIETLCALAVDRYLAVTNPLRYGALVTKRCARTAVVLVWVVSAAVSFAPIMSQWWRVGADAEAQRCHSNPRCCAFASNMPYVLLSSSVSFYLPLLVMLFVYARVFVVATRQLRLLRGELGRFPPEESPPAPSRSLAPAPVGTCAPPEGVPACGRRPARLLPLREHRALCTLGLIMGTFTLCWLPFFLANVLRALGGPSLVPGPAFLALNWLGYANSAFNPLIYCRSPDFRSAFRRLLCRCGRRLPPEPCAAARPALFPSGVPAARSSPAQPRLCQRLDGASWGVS

`OC(CNCCOc1ccc2c(c1)[nH]c1ccccc12)c1ccccc1` (racemic) [Example 31, (±)-2-N-[2-(9H-Carbazol-2-yloxy)ethyl]amino]-1-phenyethanol Hydrochloride]: the Emax in data set [1] (CHO, read-out: Intrinsic activity (%)) stood at 100%; in data set [2] (read-out: Intrinsic activity (%)), 103%. Further, the pEC50 in data set [1] (cAMP, CHO cells with human β3, read-out: ED50 (the source's name)) was 5.66; in data set [2] (1 h, glycerol release, canine adipocytes, read-out: ED50 (the source's name)) it was 5.11. Besides, the “% decrease in blood sugar” value in data set [3] is 34.5%. In addition, the “increase of free fatty acid” value in data set [4] came out at 32.4%. Moreover, the fatal cases entry in data set [5] was “no fatal case”.
